# Reference: PubChem BioAssay AID504455 (Sanford-Burnham Center for Chemical Genomics, 2011)
# pIC50: −log10 of the molar value. Active and inactive are the calls of the source.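 The calls were made as follows: active = compounds whose mean IC50 is below 20 µM; inactive = the rest.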
# Target: Apelin receptor (Homo sapiens) (UniProt P35414)
# Experiment: APJ receptor antagonists, beta-arrestin recruitment, SAR follow-up, cell-based, CHO-K1 AGTRL-1, PathHunter luminescence, set 6 (AID 504455)
# Conditions: apelin-13 antagonism
# Chain of Apelin receptor (Homo sapiens) (P35414 whole entry, looked up): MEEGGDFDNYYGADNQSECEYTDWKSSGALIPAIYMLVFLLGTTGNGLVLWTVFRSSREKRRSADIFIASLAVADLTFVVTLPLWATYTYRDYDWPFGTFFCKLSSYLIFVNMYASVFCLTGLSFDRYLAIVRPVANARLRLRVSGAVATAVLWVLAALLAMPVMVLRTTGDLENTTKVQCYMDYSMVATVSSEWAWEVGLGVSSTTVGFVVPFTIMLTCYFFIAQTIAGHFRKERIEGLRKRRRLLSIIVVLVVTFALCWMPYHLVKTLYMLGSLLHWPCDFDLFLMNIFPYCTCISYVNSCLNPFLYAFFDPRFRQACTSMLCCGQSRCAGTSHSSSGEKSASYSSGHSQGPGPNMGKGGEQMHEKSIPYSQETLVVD
pIC50,IC50,Structure (SMILES)
5.01,–,N#Cc1ccc(C(=O)Oc2coc(CSc3ncccn3)cc2=O)cc1
5.51,–,Cc1ccnc(SCc2cc(=O)c(OC(=O)c3ccc([N+](=O)[O-])cc3)co2)n1
–,> 79 µM (inactive),Cc1ccnc(SCc2cc(=O)c(OC(=O)c3ccccc3)co2)n1
4.94,–,Cc1ccnc(SCc2cc(=O)c(OC(=O)c3ccc(C#N)cc3)co2)n1
4.96,–,Cc1ccc(C(=O)Oc2coc(CSc3ncccn3)cc2=O)cc1[N+](=O)[O-]
